Test results from patent publication US20070298994A1, “Use of 3-Mercapto-3-Methyl-Hexan-1-Ol for Use as Malodour Standard” (SYMRISE GMBH & CO. KG, priority 2004, published 2007).
Where two headings read alike, the source gives them in different places.

Assay: Raw material test against sweat odour (masking of malodour standard, assessor panel)
Conditions: for Increase in intensity / Malodour reduction value / Malodour-reduction value: 15 h, scale 1 to 9, standard = 6
[1] = Table 1, 1 μl fragrance + 5 μl 3-mercapto-3-methyl-hexan-1-ol (0.1% in DPG) in 7 l air, 15 h at approx. 20° C., scale 1 to 9, malodour standard mixture = 6, mean of at least 8 assessors
[2] = Table 2 (raw materials without adequate malodour-reducing action), 1 μl fragrance + 5 μl 3-mercapto-3-methyl-hexan-1-ol (0.1% in DPG) in 7 l air
[3] = Table 3 (adequate malodour-reducing action but significant increase in intensity), 1 μl fragrance + 5 μl 3-mercapto-3-methyl-hexan-1-ol (0.1% in DPG) in 7 l air
[4] = prior-art fragrances examined by the applicant

## CC1=CC(C)C(C(=O)C(C)(C)C)CC1 (centres unmarked)
[1]
  Increase In intensity: 1.4
  Odour reduction value: 3.5

## CCOC(C=C(C)CCC=C(C)C)OCC
[1]
  Increase In intensity: −0.7
  Odour reduction value: 4.3

## CC1COCc2cc3c(cc21)C(C)(C)C(C)C3(C)C (centres unmarked)
[1]
  Increase In intensity: −2.3
  Odour reduction value: 4.3

## CC1OC(C)C2Cc3ccccc3C2O1 (centres unmarked)
[1]
  Increase In intensity: 1.1
  Odour reduction value: 4.1

## COC1C=C2C(C)(C)C3CCC2(C3)C(C)(C)C1 (centres unmarked)
[1]
  Increase In intensity: 0.5
  Odour reduction value: 4.3

## CC(=CCC1CCC=C(C)C1(C)C)CO (centres unmarked)
[1]
  Increase In intensity: 0.0
  Odour reduction value: 3.0

## CC(=CO)CCC1CC=C(C)C1(C)C (centres unmarked)
[1]
  Increase In intensity: 0.3
  Odour reduction value: 3.8>

## CC1=CCC=C(C)C(O)CCC=C(C)CC1 (centres unmarked)
[1]
  Increase In intensity: 1.5
  Odour reduction value: 4.5

## Cc1cccc(CC(C)(C)CO)c1
[1]
  Increase In intensity: 1.2
  Odour reduction value: 4.4

## CC(C)=CCC(C)(C)C(=O)C(C)C
[1]
  Increase In intensity: 1.0
  Odour reduction value: 3.3

## CC(C)=CCCC(C)=CCCC(C)C=O (centres unmarked)
[1]
  Increase In intensity: 0.2
  Odour reduction value: 3.8

## CC(=O)C1(C)CC2=C(CCCC2(C)C)CC1C (centres unmarked)
[1]
  Increase In intensity: 0.2
  Odour reduction value: 3.4

## CC(=O)C(C)=CC1C(C)=CCCC1(C)C (centres unmarked)
[1]
  Increase In intensity: −0.7
  Odour reduction value: 5.1

## CCc1ccc(CC(C)(C)C=O)cc1
[1]
  Increase In intensity: −1.9
  Odour reduction value: 3.7

## CCCC(=O)C(CC)Cc1ccccc1 (centres unmarked)
[1]
  Increase In intensity: 0.1
  Odour reduction value: 4.6

## CC(=O)C(C)=C(C)C(C)C(C)(C)C (centres unmarked)
[1]
  Increase In intensity: 1.6
  Odour reduction value: 3.2

## C=CC(C)(O)CCC=C(C)CC (centres unmarked)
[1]
  Increase In intensity: 1.0
  Odour reduction value: 3.1

## CC(C)=CCC(C)(C)C1OCC=CCO1
[1]
  Increase In intensity: 0.0
  Odour reduction value: 3.7

## CC1=CCC(C(C)CC=O)CC1 (centres unmarked)
[1]
  Increase In intensity: 0.9
  Odour reduction value: 3.9

## C/C=C/C(=O)C1CCC(C)(C)C=C1C (centres unmarked)
[1]
  Increase In intensity: 1.0
  Odour reduction value: 5.0

## O=C1CCCCCCCCC/C=C/CCCO1
[1]
  Increase In intensity: 0.0
  Odour reduction value: 4.0

## CC(C)=CCCC(C)CCOCC=O (centres unmarked)
[1]
  Increase In intensity: 1.5
  Odour reduction value: 3.8

## CCCCCCC1OC(=O)CC1C (mixture of isomers) [(E/Z) 5-HEXYLDIHYDRO-4-METHYL-2-FURANONE]
[1]
  Increase In intensity: 1.2
  Odour reduction value: 4.2

## CC(=O)O[C@@H]1C[C@H]2CC[C@]1(C)C2(C)C (racemic) [ACETIC ACID ISOBORNYL ESTER, reference compound]
[2]
  Increase in intensity: −0.5
  Malodour reduction value: 2.3

## CCC(O)CC[C@H]1[C@@H](C)CCCC1(C)C (relative stereo)
[1]
  Increase In intensity: 0.8
  Odour reduction value: 3.1

## CC1=C[C@H](C)[C@H](C=O)CC1 (relative stereo)
[1]
  Increase In intensity: −1.3
  Odour reduction value: 4.4

## CC=CC(=O)C1C(C)=CCCC1(C)C (stereo in doubt) [ALPHA-DAMASCONE]
[1]
  Increase In intensity: −2.0
  Odour reduction value: 4.1

## c1ccc2c(c1)CC1COCOC21 (centres unmarked) [1,4A,9,9A-TETRAHYDRO-2,4-DIOXA-FLUORENE]
[1]
  Increase In intensity: 1.0
  Odour reduction value: 4.3

## CC12CCC(CC1)C(C)(C)O2 [1,8-CINEOL, reference compound]
[3]
  Increase in intensity: 2.4
  Malodour-reduction value: 5.1

## CCCCCCO [1-HEXANOL]
[1]
  Increase In intensity: 1.6
  Odour reduction value: 3.6

## COC(=O)C1CC2(C)C=CC1(C(C)C)CC2 (centres unmarked) [1-ISOPROPYL-4-METHYL-BICYCLO[2.2.2]OCT-5-ENE-2-CARBOXYLIC ACID METHYL ESTER]
[1]
  Increase In intensity: −0.8
  Odour reduction value: 4.2

## CC=Cc1ccc(OC)cc1 [1-METHOXY-4-PROPENYL BENZENE, reference compound]
[2]
  Increase in intensity: 2.0
  Malodour reduction value: 2.0

## O=C1CCCCCCCCCCCCCCO1 [1.15-PENTADECANOLIDE]
[1]
  Increase In intensity: 1.1
  Odour reduction value: 3.6

## COC(=O)c1ccc(O)c(C)c1O [2,4-DIHYDROXY-3-METHYLBENZOIC ACID METHYL ESTER]
[1]
  Increase In intensity: 0.0
  Odour reduction value: 3.0

## COC(=O)c1c(C)cc(O)c(C)c1O [2,4-DIHYDROXY-3.6-DIMETHYLBENZOIC ACID METHYL ESTER]
[1]
  Increase In intensity: 1.3
  Odour reduction value: 3.8

## CCOC(=O)C1=C(C)C=CCC1(C)C [2,6,6-TRIMETHYL-1,3-CYCLOHEXADIENE CARBOXYLIC ACID ETHYL ESTER]
[1]
  Increase In intensity: −2.8
  Odour reduction value: 3.0

## CC(=O)c1cc2ccccc2o1 [2-ACETYLBENZOFURAN]
[1]
  Increase In intensity: 1.2
  Odour reduction value: 3.3

## CCCCCCCC1CCCC1=O (centres unmarked) [2-HEPTYL-CYCLOPENTANONE]
[1]
  Increase In intensity: 1.3
  Odour reduction value: 4.5

## COCc1ccc(O)c(OC)c1 [2-METHOXY-4-METHOXYMETHYL-PHENOL]
[1]
  Increase In intensity: −0.1
  Odour reduction value: 4.1

## COCc1ccccc1O [2-METHOXYMETHYLPHENOL]
[1]
  Increase In intensity: −2.1
  Odour reduction value: 3.8

## CC(CC#N)CCc1ccccc1 (centres unmarked) [2-METHYL-4-PHENYL BUTYL CYANIDE]
[1]
  Increase In intensity: 0.2
  Odour reduction value: 5.3

## CC(CO)CCCc1ccccc1 (centres unmarked) [2-METHYL-5-PHENYL PENTANOL]
[1]
  Increase In intensity: −0.5
  Odour reduction value: 5.1

## CCCC(C)C(=O)OCC (centres unmarked) [2-METHYL-PENTANOIC ACID ETHYL ESTER]
[1]
  Increase In intensity: 0.2
  Odour reduction value: 4.4

## CCCCCCCCCC(C)C=O (centres unmarked) [2-METHYLUNDECANAL]
[1]
  Increase In intensity: 0.7
  Odour reduction value: 3.2

## COC(=O)c1ccccc1N=CC(C)Cc1ccc(C(C)(C)C)cc1 (centres unmarked) [2-[[3-[4-1 1-DIMETHYLETHYL)PHENYL)-2-METHYLPROPLIDEN]AMINO]-BENZOIC ACID METHYL ESTER]
[1]
  Increase In intensity: −0.4
  Odour reduction value: 3.3

## O=Cc1ccc2c(c1)OCO2 [3,4-METHYLENDIOXYBENZALDEHYDE]
[1]
  Increase In intensity: −1.2
  Odour reduction value: 3.7

## CC(C)CCCC(C)CCO (centres unmarked) [3,7-DIMETHYL OCTANOL, reference compound]
[3]
  Increase in intensity: 2.2
  Malodour-reduction value: 4.0
[4]
  intrinsic odour / perfumistic impression (in words): strong perfumistic impression
  reduction in the bad odour based on 3-mercapto-3-methyl-hexan-1-ol (in words): leads to a malodour reduction

## CC(C)=CCCC(C)CC#N (centres unmarked) [3,7-DIMETHYL-6-OCTENE NITRILE]
[1]
  Increase In intensity: 0.5
  Odour reduction value: 4.5

## CCCCC1COCC(C)C1OC(C)=O (centres unmarked) [3-BUTYL-TETRAHYDRO-5-METHYL-PYRAN-4-OL ACETATE]
[1]
  Increase In intensity: 1.0
  Odour reduction value: 3.0

## CC(C)c1ccc(CC=O)cc1 [4-(1-METHYLETHYL)-PHENYL ACETALDEHYDE]
[1]
  Increase In intensity: 1.7
  Odour reduction value: 3.8

## COc1ccc(C=O)cc1 [4-METHOXYBENZALDEHYDE]
[1]
  Increase In intensity: 1.0
  Odour reduction value: 4.7

## CC(=O)CC(C)(C)c1ccccc1 [4-METHYL-4-PHENYL-2-PENTANONE]
[1]
  Increase In intensity: 1.4
  Odour reduction value: 4.2

## CCCCCCC1(C)CCC(=O)O1 (centres unmarked) [4-METHYL-GAMMA-DECALACTONE]
[1]
  Increase In intensity: 0.9
  Odour reduction value: 5.6

## CCCCCCCC1CCC(=O)O1 (centres unmarked) [5-HEPTYL-2-DIHYDROFURANONE]
  Increase In intensity: 1.1
  Odour reduction value: 3.8

## CCCCCC1CCC(=O)O1 (centres unmarked) [5-PENTYLDIHYDROFURAN-2-ONE]
[1]
  Increase In intensity: −0.8
  Odour reduction value: 4.1

## CC(=O)c1cc2c(cc1C)C(C)(C)C(C)CC2(C)C (centres unmarked) [6-ACETYL-1,1,2,4,4,7-[…]]
[1]
  Increase In intensity: 0.0
  Odour reduction value: 3.1

## C=CCCCCCCCCC=O [10-UNDECENAL]
[1]
  Increase In intensity: 1.6
  Odour reduction value: 3.3

## C=CCOC(=O)COC1CCCCC1 [(CYCLOHEXYLOXY)-ACETIC ACID-2-PROPENYL ESTER]
[1]
  Increase In intensity: −0.5
  Odour reduction value: 4.3

## CCC/C=C/C=O [(E)-2-HEXENAL]
[1]
  Increase In intensity: −0.2
  Odour reduction value: 3.1

## C/C(=C\C#N)CCc1ccccc1 [(E)-3-METHYL-5-PHENYL-2-PENTENE NITRILE]
[1]
  Increase In intensity: 1.2
  Odour reduction value: 5.1

## O=C1CCCCCC/C=C/CCCCCCC1 [(E)-8-CYCLOHEXADECEN-1-ONE]
[1]
  Increase In intensity: 0.2
  Odour reduction value: 4.0

## CCCC1CCOC(C)S1 (centres unmarked) [(Z)-2-METHYL-4-PROPYL-1,3-OXATHIANE]
[1]
  Increase In intensity: 0.0
  Odour reduction value: 3.1

## CCCCCCCCCC/C=C\C#N [(Z)-2-TRIDECENE NITRILE]
[1]
  Increase In intensity: 1.6
  Odour reduction value: 3.8

## CC/C=C\CCOCCC#N [(Z)-3-(3-HEXENYLOXY)-PROPANENITRILE]
[1]
  Increase In intensity: 1.5
  Odour reduction value: 5.0

## CC(=O)OC(C)c1ccccc1 (centres unmarked) [ACETIC ACID-1-PHENYLETHYL ESTER]
[1]
  Increase In intensity: −0.4
  Odour reduction value: 4.0

## CC(=O)OCC(C)CC(C)(C)c1ccccc1 (centres unmarked) [ACETIC ACID-2,4-DIMETHYL-4-PHENYLPENTYL ESTER]
[1]
  Increase In intensity: 1.6
  Odour reduction value: 3.4

## CC(=O)OCCc1ccccc1 [ACETIC ACID-2-PHENYLETHYL ESTER]
[1]
  Increase In intensity: 1.0
  Odour reduction value: 4.0

## CC/C=C/CCOC(C)=O [ACETIC ACID-3(E)-HEXENYL ESTER]
[1]
  Increase In intensity: 1.3
  Odour reduction value: 3.1

## CC(=O)OCCC(C)C [ACETIC ACID-3-METHYLBUTYL ESTER]
[1]
  Increase In intensity: 1.3
  Odour reduction value: 5.8
